As usually defined, the MRT is a mean duration of stay, worked out from the concentration-time curve.

Where two headings read alike, the source gives them in different places. Starred links: 1 amine or outer side, 2 acyl side, 3 side chain; linkers in the order of their positions; H or OH if unused. Non-standard residues stand in square brackets, D forms with d. Groups on a side chain read outwards from the residue. No end group written: not given here. *: point of attachment. C20 diacid = O=C(O)CCCCCCCCCCCCCCCCCCC(=O)*; C18 diacid = O=C(O)CCCCCCCCCCCCCCCCC(=O)*; γGlu = O=C(O)[C@H](CCC(=O)[*:2])N[*:1]; εLys = N[C@@H](CCCCN[*:1])C(=O)[*:2]; AEEA = NCCOCCOCC(=O)O; Aib = CC(C)(N)C(=O)O; Ahx = NCCCCCC(=O)O A value given as a limit tells only on which side of the number the result lay.

Experimental findings from patent US20240247080A1, “GLP1/GIP/NPY2 RECEPTOR TRIPLE AGONISTS” (Boehringer Ingelheim International GmbH, priority 2022, published 2024) are described below.

In one series the target is T1, hGIPR (Homo sapiens, UniProt P48546).
T1 construct: expressed in transfected cells; host or cells: CHO cells carrying a CRE-luciferase reporter gene
T1 sequence (P48546 22-466): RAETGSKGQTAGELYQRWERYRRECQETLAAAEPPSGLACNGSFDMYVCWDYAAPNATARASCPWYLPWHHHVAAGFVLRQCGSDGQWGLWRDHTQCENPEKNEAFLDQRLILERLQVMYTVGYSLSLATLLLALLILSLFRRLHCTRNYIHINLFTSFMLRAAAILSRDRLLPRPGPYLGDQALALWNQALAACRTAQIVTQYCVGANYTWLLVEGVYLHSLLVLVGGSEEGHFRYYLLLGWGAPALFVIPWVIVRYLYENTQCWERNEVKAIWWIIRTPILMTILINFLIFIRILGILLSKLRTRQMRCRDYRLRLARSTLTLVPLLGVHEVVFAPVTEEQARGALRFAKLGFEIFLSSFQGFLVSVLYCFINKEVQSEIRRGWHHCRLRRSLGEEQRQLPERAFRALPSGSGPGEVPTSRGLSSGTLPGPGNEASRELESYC
Description: hGIPR CreLuc reporter gene assay in 0.5% and 100% plasma. The settings on record: CreLuc reporter gene assay. Format: cell-based. The method, boiled down: (§1)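 HEK-293 cells co-expressing GLP-1 or NPY2 receptor and CHO cells expressing GIP receptor, each carrying a CRE-driven luciferase reporter, were stimulated with peptides for 4 hours at 37 °C. Luminescence was read after Bright-Glo addition. EC50 came from 8-point, four-decade curves fitted by variable-slope non-linear regression.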
For orientation: Reporter assays use an easily measured gene product as a stand-in for the process of interest.

A further series has as its target T2, hNPY2R (Homo sapiens, UniProt P49146).
T2 construct: expressed in transfected cells; host or cells: HEK-293 cells carrying a CRE-luciferase reporter gene
T2 sequence (P49146 1-381): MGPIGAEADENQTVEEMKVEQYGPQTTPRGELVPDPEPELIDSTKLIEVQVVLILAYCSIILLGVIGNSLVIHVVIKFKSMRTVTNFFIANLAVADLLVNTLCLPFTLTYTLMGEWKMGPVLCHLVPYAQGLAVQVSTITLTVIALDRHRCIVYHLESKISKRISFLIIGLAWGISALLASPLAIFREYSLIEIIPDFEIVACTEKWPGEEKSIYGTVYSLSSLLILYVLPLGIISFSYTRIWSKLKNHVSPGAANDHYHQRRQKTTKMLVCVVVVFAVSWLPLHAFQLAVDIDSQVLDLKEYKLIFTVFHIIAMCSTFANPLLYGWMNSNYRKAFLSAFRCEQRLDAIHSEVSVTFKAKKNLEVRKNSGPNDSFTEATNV
In words: hNPY2R CreLuc reporter gene assay in 0.5% and 100% plasma. To be noted: CreLuc reporter gene assay. The series is classed as cell-based. The method, boiled down:
as §1

The nature of series [1]: Mouse PK after intravenous application. Format: in vivo. To be noted: plasma, mean residence time, intravenous 30-60 nmol/kg, male NMRI mice. As for the experimental part:
Pharmacokinetic parameters of the peptides were determined after intravenous application to NMRI mice. Male NMRI mice were obtained from Janvier Laboratories (France) weighing 30 to 40 g. Mice were housed in standard cages with a 12:12 hour light:dark cycle and standard food and water access ad libitum. Each test peptide was dissolved in 50 mM phosphate buffer (pH 7.4)/3.5% mannitol. Intravenous application of 30-60 nmol/kg was performed via the tail vein. Serial blood samples from conscious mice were collected from the saphenous vein in EDTA-containing vials at different time points up to 56 hours post-dosing. Subsequently, plasma was prepared by centrifugation for 5 min at approximately 5000 rpm and stored at −20° C. until quantification of the peptide plasma levels by liquid chromatography mass spectrometry (LC-MS). Individual plasma concentration—time profiles were analysed by a non-compartmental approach and the resulting pharmacokinetic parameters were calculated.

The target of a further series is T3, hGLP1R (Homo sapiens, UniProt P43220).
T3 construct: expressed in transfected cells; host or cells: HEK-293 cells carrying a CRE-luciferase reporter gene
T3 sequence (P43220 24-463): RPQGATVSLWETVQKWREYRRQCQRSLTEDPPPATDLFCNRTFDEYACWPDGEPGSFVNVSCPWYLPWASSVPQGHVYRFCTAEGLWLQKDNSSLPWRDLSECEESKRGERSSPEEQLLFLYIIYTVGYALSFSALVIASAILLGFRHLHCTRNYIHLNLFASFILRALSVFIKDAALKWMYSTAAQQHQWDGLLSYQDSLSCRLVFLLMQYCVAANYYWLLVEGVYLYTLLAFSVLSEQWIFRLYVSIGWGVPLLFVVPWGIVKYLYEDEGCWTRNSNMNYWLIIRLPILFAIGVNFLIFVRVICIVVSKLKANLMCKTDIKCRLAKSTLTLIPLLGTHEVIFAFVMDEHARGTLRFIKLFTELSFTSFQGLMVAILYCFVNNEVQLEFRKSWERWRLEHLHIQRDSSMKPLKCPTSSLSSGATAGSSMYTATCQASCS
Description: hGLP1R CreLuc reporter gene assay in 0.5% and 100% plasma. Format: cell-based. To be noted: CreLuc reporter gene assay. In outline: as §1

Setting [2] is: 0.5% human plasma, read-out: hGIPR 0.5% hP.
Where [3] appears, read: 100% human plasma, read-out: hGIPR 100% hP.
The mark [4] stands for this setting: 0.5% human plasma, read-out: hNPY2R 0.5% hP.
Where [5] appears, read: 0.5% human plasma, read-out: hGLP1R 0.5% hP.
Where [6] appears, read: 100% human plasma, read-out: hNPY2R 100% hP.

In the case of `CC[C@H](C)[C@H](NC(=O)[C@H](CC(C)C)NC(=O)[C@H](Cc1c[nH]c2ccccc12)NC(=O)[C@H](CCC(=O)O)NC(=O)[C@@H](NC(=O)[C@H](Cc1ccccc1)NC(=O)[C@H](C)NC(=O)C(C)(C)NC(=O)[C@H](CCC(N)=O)NC(=O)[C@H](C)NC(=O)[C@H](CCC(N)=O)NC(=O)[C@H](CCCCN)NC(=O)[C@H](CCC(=O)O)NC(=O)[C@H](CC(C)C)NC(=O)C(C)(C)NC(=O)[C@@H](NC(=O)[C@H](CO)NC(=O)[C@H](Cc1ccc(O)cc1)NC(=O)[C@H](CC(=O)O)NC(=O)[C@H](CO)NC(=O)[C@@H](NC(=O)[C@H](Cc1ccccc1)NC(=O)[C@@H](NC(=O)CNC(=O)[C@H](CCC(=O)O)NC(=O)C(C)(C)NC(=O)[C@@H](N)Cc1ccc(O)cc1)[C@@H](C)O)[C@@H](C)O)[C@@H](C)CC)C(C)C)C(=O)N[C@@H](CCCCNC(=O)[C@@H](N)CCCCNC(=O)CC[C@H](NC(=O)CC[C@H](NC(=O)CC[C@H](NC(=O)CC[C@H](NC(=O)CC[C@H](NC(=O)CC[C@H](NC(=O)CCCCCCCCCCCCCCCCCCC(=O)O)C(=O)O)C(=O)O)C(=O)O)C(=O)O)C(=O)O)C(=O)O)C(=O)NCC(=O)NCC(=O)N1CCC[C@H]1C(=O)N[C@@H](CO)C(=O)N[C@@H](CO)C(=O)NCC(=O)N[C@@H](C)C(=O)N[C@@H](CO)C(=O)N[C@@H](CC(C)C)C(=O)N[C@@H](CCCNC(=N)N)C(=O)N[C@@H](Cc1c[nH]cn1)C(=O)N[C@@H](Cc1ccc(O)cc1)C(=O)N[C@@H](Cc1ccc(O)cc1)C(=O)N[C@@H](CC(N)=O)C(=O)N[C@@H](Cc1c[nH]c2ccccc12)C(=O)N[C@@H](CC(C)C)C(=O)N[C@H](C(=O)N[C@@H](CCCNC(=N)N)C(=O)N(C)[C@@H](CCC(N)=O)C(=O)N[C@@H](CCCNC(=N)N)C(=O)N[C@@H](Cc1ccc(O)cc1)C(N)=O)[C@@H](C)O` [Compound 85, Y-Aib-E-G-T-F-T-S-D-Y-S-I-Aib-L-E-K-Q-A-Q-Aib-A-F-V-E-W-L-I-K(1,3)-G-G-P-S-S-G-A-S-L-R-H-Y-Y-N-W-L-T-R-NMeQ-R-Y-NH2.C20DA-gGlu-gGlu-gGlu-gGlu-gGlu-gGlu-eLys(1,2)], the EC50 is 0.22 nM on hGIPR (setting [2]), 1.11 nM at hGIPR (setting [3]), 10.3 nM on hNPY2R (setting [4]) and 0.15 nM at hGLP1R (setting [5]). The MRT in series [1] was 12.6 h.
On to “Y[Aib]EGTFTSDYSI[Aib]LEKQAQ[Aib]EFVEWLIK([AEEA-AEEA-γGlu-γGlu-γGlu-C18 diacid])GGPSEGASLRHYYNWLTRQRY-NH2 [Compound 284, Y-Aib-E-G-T-F-T-S-D-Y-S-I-Aib-L-E-K-Q-A-Q-Aib-E-F-V-E-W-L-I-K(1,3)-GGPSEGASLRHYYNWLTRQRY-NH2.C18DA-gGlu-gGlu-gGlu-OEG-OEG(1,2)]”, for which the EC50 at hGIPR (setting [2]) was found to be 0.33 nM; on hGIPR (setting [3]), 0.8 nM; on hNPY2R (setting [4]), 18.8 nM; at hGLP1R (setting [5]), 0.51 nM. For the same compound, the MRT in series [1] stood at 6.8 h.
For “Y[Aib]EGTFTSDYSI[Aib]LEKQAQ[Aib]AFVEWLIK([AEEA-AEEA-γGlu-γGlu-γGlu-γGlu-C18 diacid])GGPSEGASLRHYYNWLTRQRY-NH2 [Compound 297, Y-Aib-E-G-T-F-T-S-D-Y-S-I-Aib-L-E-K-Q-A-Q-Aib-A-F-V-E-W-L-I-K(1,3)-GGPSEGASLRHYYNWLTRQRY-NH2.C18DA-gGlu-gGlu-gGlu-gGlu-OEG-OEG(1,2)]”, the EC50 turned out to be 0.25 nM on hGIPR (setting [2]), 0.93 nM on hGIPR (setting [3]), 40.5 nM at hNPY2R (setting [6]) and 0.12 nM at hGLP1R (setting [5]). This compound also came in with an MRT in series [1] of 7.5 h.
Turning to `CC[C@H](C)[C@H](NC(=O)[C@H](CC(C)C)NC(=O)[C@H](Cc1c[nH]c2ccccc12)NC(=O)[C@H](CCC(=O)O)NC(=O)[C@@H](NC(=O)[C@H](Cc1ccccc1)NC(=O)[C@H](C)NC(=O)C(C)(C)NC(=O)[C@H](CCC(N)=O)NC(=O)[C@H](C)NC(=O)[C@H](CCC(N)=O)NC(=O)[C@H](CCCCN)NC(=O)[C@H](CCC(=O)O)NC(=O)[C@H](CC(C)C)NC(=O)C(C)(C)NC(=O)[C@@H](NC(=O)[C@H](CO)NC(=O)[C@H](Cc1ccc(O)cc1)NC(=O)[C@H](CC(=O)O)NC(=O)[C@H](CO)NC(=O)[C@@H](NC(=O)[C@H](Cc1ccccc1)NC(=O)[C@@H](NC(=O)CNC(=O)[C@H](CCC(=O)O)NC(=O)C(C)(C)NC(=O)[C@@H](N)Cc1ccc(O)cc1)[C@@H](C)O)[C@@H](C)O)[C@@H](C)CC)C(C)C)C(=O)N[C@@H](CCCCNC(=O)[C@@H](N)CCCCNC(=O)CC[C@H](NC(=O)CC[C@H](NC(=O)CC[C@H](NC(=O)CC[C@H](NC(=O)CC[C@H](NC(=O)CC[C@H](NC(=O)CCCCCCCCCCCCCCCCCCC(=O)O)C(=O)O)C(=O)O)C(=O)O)C(=O)O)C(=O)O)C(=O)O)C(=O)NCC(=O)NCC(=O)N1CCC[C@H]1C(=O)N[C@@H](CO)C(=O)N[C@@H](CO)C(=O)NCC(=O)N[C@@H](C)C(=O)N[C@@H](CO)C(=O)N[C@@H](CC(C)C)C(=O)N[C@@H](CCCNC(=N)N)C(=O)N[C@@H](Cc1c[nH]cn1)C(=O)N[C@@H](Cc1ccc(O)cc1)C(=O)N[C@@H](Cc1ccc(O)cc1)C(=O)N[C@@H](CC(N)=O)C(=O)N[C@@H](Cc1c[nH]c2ccccc12)C(=O)N[C@@H](CC(C)C)C(=O)N[C@H](C(=O)N[C@@H](CCCNC(=N)N)C(=O)N[C@@H](CCC(N)=O)C(=O)N[C@@H](CCCNC(=N)N)C(=O)N[C@H](Cc1ccc(O)cc1)C(N)=O)[C@@H](C)O` [Compound 214, Y-Aib-E-G-T-F-T-S-D-Y-S-I-Aib-L-E-K-Q-A-Q-Aib-A-F-V-E-W-L-I-K(1,3)-GGPSSGASLRHYYNWLTRQR-DTyr-NH2.C20DA-gGlu-gGlu-gGlu-gGlu-gGlu-gGlu-eLys(1,2)], the EC50 was 0.23 nM at hGIPR (setting [2]); 1.81 nM at hGIPR (setting [3]); greater than 99.9 nM at hNPY2R (setting [4]); 0.19 nM on hGLP1R (setting [5]); 2.65 nM on hGLP1R (100% human plasma, read-out: hGLP1R 100% hP). This compound displayed an MRT in series [1] of 10.1 h.
On to “Y[Aib]EGTFTSDYSI[Aib]LEKQAQ[Aib]AFVQWLIK([εLys-γGlu-γGlu-γGlu-γGlu-γGlu-γGlu-γGlu-C20 diacid])GGPSEGASLRHYYNWLTRQRY-NH2 [Compound 224, Y-Aib-E-G-T-F-T-S-D-Y-S-I-Aib-L-E-K-Q-A-Q-Aib-A-F-V-Q-W-L-I-K(1,3)-GGPSEGASLRHYYNWLTRQRY-NH2.C20DA-gGlu-gGlu-gGlu-gGlu-gGlu-gGlu-gGlu-eLys(1,2)]”, for which the EC50 at hGIPR (setting [2]) turned out to be 0.43 nM; at hNPY2R (setting [4]), 10.6 nM; on hNPY2R (setting [6]), 31.6 nM; at hGLP1R (setting [5]), 0.13 nM. Besides, the MRT in series [1] came out at 10.2 h.
Regarding “H-Y[Aib]EGTFTSDYSI[Aib]LEKQAQ[Aib]AFVQWLIK([Ahx-γGlu-γGlu-γGlu-γGlu-γGlu-γGlu-C18 diacid])GGPSSGASLRHYYNWLTRQRY-NH2 [Compound 139, Y-Aib-E-G-T-F-T-S-D-Y-S-I-Aib-L-E-K-Q-A-Q-Aib-A-F-V-Q-W-L-I-K(1,3)-GGPSSGASLRHYYNWLTRQRY-NH2.C18DA-gGlu-gGlu-gGlu-gGlu-gGlu-gGlu-AHX(1,2)]”, the EC50 on hGIPR (setting [2]) came to 0.22 nM; at hGIPR (setting [3]), 1.04 nM; at hNPY2R (setting [4]), 18.3 nM; at hGLP1R (setting [5]), 0.07 nM. Also, the MRT in series [1] turned out to be 10 h.
